In patent US20250243171A1, “QUINAZOLINE COMPOUNDS FOR TREATMENT OF DISEASE” (Arthrosi Therapeutics, Inc., priority 2021, published 2025):

Key:
Experiment in all cases: EC50 assay: Ba/F3 stable cell proliferation (CCK-8, 72 h)
Type in all cases: cell-based
Ba/F3 stable cells [1] = target: T1, Ba/F3 stable cells (Homo sapiens, UniProt P00533, T790M/L858R, cells depend on it); details: Ba/F3-EGFR L858R-T790M cells
T1 construct: EC50 Ba/F3-EGFR L858R-T790M; other: Ba/F3-EGFR L858R-T790M cells, 72 h, CCK-8
Description: (§1) 4,000 Ba/F3 stable cells/90 μL/well were plated onto 96-well cell culture plate (Grenier, Cat.No. 655180) and incubated at 37° C. with a humidified atmosphere of 5% CO2 for 2 h. Then the cells were treated with 10 μL compounds at serial titration. The final DMSO concentration is 0.1%. The cells treated with 0.1% DMSO (Vetec, Cat.No.V900090) as a positive control (Max), and medium with 0.1% DMSO was as a negative control (Min). Incubated the cells at 37° C. for 72 h. 10 μL the cell proliferation reagent CCK-8 (Dojindo, Cat.No. CK04 1000T) was added into each well and incubated the plate at 37° C. for 4 hours, the GD value was measured by SPECTRAmax plus (Molecular Devices) at 450 nm. Data processing with Graphpad 7.0.

Ba/F3 stable cells [2] = target: T2, Ba/F3 stable cells (Homo sapiens, UniProt P00533, DUP768-770, cells depend on it); details: Ba/F3-EGFR D770-N771insSVD cells
T2 construct: EC50 Ba/F3-EGFR D770-N771insSVD; other: Ba/F3-EGFR D770-N771insSVD cells, 72 h, CCK-8
Description: as §1

Ba/F3 stable cells [3] = target: T3, Ba/F3 stable cells (Homo sapiens, UniProt P04626, DUP772-775, cells depend on it); details: Ba/F3-HER2 A775-G776insYVMA cells
T3 construct: EC50 Ba/F3-HER2 A775-G776insYVMA; other: Ba/F3-HER2 A775-G776insYVMA cells, 72 h, CCK-8
Description: as §1

Ba/F3 stable cells [4] = target: T4, Ba/F3 stable cells (Homo sapiens, UniProt P00533, DUP767-769, cells depend on it); details: Ba/F3-EGFR V769-D770insASV cells
T4 construct: EC50 Ba/F3-EGFR V769-D770insASV; other: Ba/F3-EGFR V769-D770insASV cells, 72 h, CCK-8
Description: as §1

Ba/F3 stable cells [5] = target: T5, Ba/F3 stable cells (Homo sapiens, UniProt P00533, INS763FQEA, cells depend on it); details: Ba/F3-EGFR A763-Y764insFQEA cells
T5 construct: EC50 Ba/F3-EGFR A763-Y764insFQEA; other: Ba/F3-EGFR A763-Y764insFQEA cells, 72 h, CCK-8
Description: as §1

Ba/F3 stable cells [6] = target: T6, Ba/F3 stable cells (Homo sapiens, UniProt P00533, DUP771-773, cells depend on it); details: Ba/F3-EGFR H773-V774insNPH cells
T6 construct: EC50 Ba/F3-EGFR H773-V774insNPH; other: Ba/F3-EGFR H773-V774insNPH cells, 72 h, CCK-8
Description: as §1

T3 sequence (P04626 with tags, fused parts or gaps DUP772-775): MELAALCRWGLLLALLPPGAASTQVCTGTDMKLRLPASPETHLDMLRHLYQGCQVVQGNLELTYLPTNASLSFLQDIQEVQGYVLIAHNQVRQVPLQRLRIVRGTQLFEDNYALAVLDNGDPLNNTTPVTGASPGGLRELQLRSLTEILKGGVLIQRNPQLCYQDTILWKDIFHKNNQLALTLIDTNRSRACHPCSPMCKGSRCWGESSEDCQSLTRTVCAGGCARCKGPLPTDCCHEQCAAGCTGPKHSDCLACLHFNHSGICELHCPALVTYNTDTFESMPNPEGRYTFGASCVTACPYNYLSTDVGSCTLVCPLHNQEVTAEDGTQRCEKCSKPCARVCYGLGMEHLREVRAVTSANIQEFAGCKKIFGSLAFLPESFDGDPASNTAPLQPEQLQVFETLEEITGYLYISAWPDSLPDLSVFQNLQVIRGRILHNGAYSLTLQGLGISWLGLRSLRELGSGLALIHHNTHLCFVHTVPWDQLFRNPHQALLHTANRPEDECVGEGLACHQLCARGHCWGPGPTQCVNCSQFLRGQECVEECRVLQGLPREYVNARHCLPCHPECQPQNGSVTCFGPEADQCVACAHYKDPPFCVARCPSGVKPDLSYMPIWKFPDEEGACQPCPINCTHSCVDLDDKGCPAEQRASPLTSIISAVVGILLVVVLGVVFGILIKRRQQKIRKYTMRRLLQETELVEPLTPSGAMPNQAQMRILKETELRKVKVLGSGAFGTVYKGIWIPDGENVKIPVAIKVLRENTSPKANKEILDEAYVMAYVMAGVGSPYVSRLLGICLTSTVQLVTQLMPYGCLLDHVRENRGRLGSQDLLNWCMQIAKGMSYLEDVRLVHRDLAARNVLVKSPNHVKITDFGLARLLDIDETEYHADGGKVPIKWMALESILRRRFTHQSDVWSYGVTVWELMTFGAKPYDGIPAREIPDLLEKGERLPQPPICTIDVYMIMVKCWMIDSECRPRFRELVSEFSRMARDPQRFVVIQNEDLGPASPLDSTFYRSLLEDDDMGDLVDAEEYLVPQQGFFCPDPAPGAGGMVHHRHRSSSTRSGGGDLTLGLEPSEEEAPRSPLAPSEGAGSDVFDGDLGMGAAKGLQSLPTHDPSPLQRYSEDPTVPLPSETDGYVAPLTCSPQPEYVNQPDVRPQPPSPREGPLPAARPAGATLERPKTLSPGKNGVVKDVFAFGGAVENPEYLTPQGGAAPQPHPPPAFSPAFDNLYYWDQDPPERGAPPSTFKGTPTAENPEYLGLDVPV
T6 sequence (P00533 with tags, fused parts or gaps DUP771-773): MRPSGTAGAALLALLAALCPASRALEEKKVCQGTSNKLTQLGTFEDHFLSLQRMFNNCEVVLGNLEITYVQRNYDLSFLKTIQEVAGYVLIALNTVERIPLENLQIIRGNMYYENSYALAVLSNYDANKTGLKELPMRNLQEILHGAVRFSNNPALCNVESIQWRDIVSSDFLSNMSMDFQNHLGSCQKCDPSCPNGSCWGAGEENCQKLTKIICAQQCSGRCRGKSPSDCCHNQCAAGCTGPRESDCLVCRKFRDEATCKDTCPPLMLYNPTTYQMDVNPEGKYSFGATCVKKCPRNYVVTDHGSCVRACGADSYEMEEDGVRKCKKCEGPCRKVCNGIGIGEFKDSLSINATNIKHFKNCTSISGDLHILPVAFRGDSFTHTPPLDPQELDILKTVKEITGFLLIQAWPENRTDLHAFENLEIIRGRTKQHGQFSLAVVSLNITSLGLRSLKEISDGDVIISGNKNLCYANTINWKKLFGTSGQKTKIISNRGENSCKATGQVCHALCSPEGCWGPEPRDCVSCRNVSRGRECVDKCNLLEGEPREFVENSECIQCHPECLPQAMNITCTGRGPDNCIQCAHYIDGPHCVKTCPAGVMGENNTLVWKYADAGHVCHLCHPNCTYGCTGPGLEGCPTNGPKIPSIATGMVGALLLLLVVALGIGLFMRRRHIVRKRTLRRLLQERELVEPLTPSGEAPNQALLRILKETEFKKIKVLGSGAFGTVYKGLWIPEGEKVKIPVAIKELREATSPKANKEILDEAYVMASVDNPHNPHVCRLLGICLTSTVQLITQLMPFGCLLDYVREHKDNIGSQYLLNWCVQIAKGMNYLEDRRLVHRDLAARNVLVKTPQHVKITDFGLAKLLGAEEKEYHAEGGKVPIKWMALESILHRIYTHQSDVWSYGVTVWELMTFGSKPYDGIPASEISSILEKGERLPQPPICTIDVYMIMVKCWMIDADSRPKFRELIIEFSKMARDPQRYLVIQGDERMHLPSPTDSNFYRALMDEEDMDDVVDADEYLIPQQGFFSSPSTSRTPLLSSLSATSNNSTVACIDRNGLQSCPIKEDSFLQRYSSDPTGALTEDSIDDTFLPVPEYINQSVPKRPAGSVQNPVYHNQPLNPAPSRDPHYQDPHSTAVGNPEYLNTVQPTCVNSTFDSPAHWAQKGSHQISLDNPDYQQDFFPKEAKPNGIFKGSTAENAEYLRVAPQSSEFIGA
T4 sequence (P00533 with tags, fused parts or gaps DUP767-769): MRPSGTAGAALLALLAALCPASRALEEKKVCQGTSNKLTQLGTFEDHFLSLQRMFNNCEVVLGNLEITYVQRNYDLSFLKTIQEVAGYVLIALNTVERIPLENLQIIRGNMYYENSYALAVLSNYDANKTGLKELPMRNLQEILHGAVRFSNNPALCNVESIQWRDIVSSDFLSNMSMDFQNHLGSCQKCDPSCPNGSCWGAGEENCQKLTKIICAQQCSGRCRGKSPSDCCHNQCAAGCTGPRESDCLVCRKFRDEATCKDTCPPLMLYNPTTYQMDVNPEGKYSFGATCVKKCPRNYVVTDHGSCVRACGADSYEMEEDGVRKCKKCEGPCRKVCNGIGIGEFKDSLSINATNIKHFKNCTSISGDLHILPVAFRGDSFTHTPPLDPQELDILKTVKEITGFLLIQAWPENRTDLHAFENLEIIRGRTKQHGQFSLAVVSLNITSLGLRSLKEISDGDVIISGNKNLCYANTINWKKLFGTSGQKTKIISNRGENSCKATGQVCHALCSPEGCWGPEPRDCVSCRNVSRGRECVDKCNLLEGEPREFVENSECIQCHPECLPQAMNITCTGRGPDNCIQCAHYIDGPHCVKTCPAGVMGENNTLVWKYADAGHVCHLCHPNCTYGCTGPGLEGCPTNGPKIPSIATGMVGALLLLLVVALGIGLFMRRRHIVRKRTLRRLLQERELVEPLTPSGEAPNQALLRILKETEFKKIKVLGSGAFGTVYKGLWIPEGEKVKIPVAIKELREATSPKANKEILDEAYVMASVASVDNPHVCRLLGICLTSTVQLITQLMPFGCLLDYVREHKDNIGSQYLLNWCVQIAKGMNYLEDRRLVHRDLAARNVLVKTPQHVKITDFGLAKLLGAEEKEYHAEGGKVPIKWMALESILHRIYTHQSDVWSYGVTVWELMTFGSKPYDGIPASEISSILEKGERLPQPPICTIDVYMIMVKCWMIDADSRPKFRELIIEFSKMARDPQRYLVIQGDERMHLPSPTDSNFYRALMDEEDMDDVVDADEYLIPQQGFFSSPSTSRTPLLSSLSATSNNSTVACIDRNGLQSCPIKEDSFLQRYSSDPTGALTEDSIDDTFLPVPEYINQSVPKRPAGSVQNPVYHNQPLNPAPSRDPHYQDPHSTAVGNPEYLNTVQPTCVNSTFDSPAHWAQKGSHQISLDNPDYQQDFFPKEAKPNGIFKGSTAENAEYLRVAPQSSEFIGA
T1 sequence (P00533 whole entry T790M/L858R): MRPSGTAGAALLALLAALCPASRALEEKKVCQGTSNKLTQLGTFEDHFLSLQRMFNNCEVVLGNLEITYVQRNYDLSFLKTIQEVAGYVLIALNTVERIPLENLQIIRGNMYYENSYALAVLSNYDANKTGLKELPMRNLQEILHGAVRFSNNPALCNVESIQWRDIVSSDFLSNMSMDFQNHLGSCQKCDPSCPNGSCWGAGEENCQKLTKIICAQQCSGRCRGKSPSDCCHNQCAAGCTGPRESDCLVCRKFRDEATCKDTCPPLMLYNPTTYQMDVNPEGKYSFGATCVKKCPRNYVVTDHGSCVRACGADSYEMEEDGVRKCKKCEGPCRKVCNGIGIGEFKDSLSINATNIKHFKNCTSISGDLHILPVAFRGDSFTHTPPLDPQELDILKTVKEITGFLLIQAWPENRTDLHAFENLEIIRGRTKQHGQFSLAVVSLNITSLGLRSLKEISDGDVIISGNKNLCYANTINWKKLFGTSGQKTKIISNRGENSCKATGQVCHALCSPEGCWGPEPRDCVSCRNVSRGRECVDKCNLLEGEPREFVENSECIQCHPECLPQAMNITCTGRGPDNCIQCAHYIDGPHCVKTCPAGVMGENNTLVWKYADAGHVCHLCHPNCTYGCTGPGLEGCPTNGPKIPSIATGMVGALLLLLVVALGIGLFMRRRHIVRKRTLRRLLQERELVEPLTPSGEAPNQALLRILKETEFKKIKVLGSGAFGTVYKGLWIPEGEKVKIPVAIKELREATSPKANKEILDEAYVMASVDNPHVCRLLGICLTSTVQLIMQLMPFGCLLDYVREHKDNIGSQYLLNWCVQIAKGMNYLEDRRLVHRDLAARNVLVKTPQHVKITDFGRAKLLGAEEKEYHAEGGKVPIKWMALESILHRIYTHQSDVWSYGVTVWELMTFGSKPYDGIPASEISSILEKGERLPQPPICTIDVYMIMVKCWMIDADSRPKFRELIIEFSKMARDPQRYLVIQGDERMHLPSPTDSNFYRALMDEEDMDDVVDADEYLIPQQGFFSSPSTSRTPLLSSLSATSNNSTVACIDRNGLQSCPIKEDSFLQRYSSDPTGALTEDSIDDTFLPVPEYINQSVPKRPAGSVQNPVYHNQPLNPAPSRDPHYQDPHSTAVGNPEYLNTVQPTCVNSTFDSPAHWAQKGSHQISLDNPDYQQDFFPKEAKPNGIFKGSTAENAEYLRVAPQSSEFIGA

Row | Structure (SMILES) | EC50 (Ba/F3 stable cells [1]) | EC50 (Ba/F3 stable cells [2]) | EC50 (Ba/F3 stable cells [3]) | EC50 (Ba/F3 stable cells [4]) | EC50 (Ba/F3 stable cells [5]) | EC50 (Ba/F3 stable cells [6])
1 | C=CC(=O)N1CCC(c2ccc3ncnc(Nc4ccc(Cl)c(Cl)c4F)c3c2)CC1 [Compound 9, 1-(4-(4-((3,4-dichloro-2-fluorophenyl)amino)quinazolin-6-yl)piperidin-1-yl)prop-2-en-1-one] | > 1000 nM | > 1000 nM | 200 to 1000 nM | > 1000 nM | ≤ 200 nM | > 1000 nM
2 | C=CC(=O)N1CCC(c2cc3c(Nc4ccc(Cl)c(Cl)c4F)ncnc3cc2OC)CC1 [Compound 10, 1-(4-(4-((3,4-dichloro-2-fluorophenyl)amino)-7-methoxyquinazolin-6-yl)piperidin-1-yl)prop-2-en-1-one] | > 1000 nM | 200 to 1000 nM | 200 to 1000 nM | ≤ 200 nM | ≤ 200 nM | 200 to 1000 nM
3 | C=CC(=O)N1CC(c2cc3c(Nc4ccc5[nH]ccc5c4)ncnc3cc2OC)C1 [Compound 11, 1-(3-(4-((1H-indol-5-yl)amino)-7-methoxyquinazolin-6-yl)azetidin-1-yl)prop-2-en-1-one] | > 1000 nM | 200 to 1000 nM | 200 to 1000 nM | ≤ 200 nM | ≤ 200 nM | ≤ 200 nM
4 | C=CC(=O)N1CC(c2cc3c(Nc4ccc5c(c4)CCN5)ncnc3cc2OC)C1 [Compound 12, 1-(3-(4-(indolin-5-ylamino)-7-methoxyquinazolin-6-yl)azetidin-1-yl)prop-2-en-1-one] | > 1000 nM | > 1000 nM | > 1000 nM | > 1000 nM | > 1000 nM | > 1000 nM
5 | C=CC(=O)N1CC(c2cc3c(NCc4ccc(F)cc4)ncnc3cc2OC)C1 [Compound 13, 1-(3-(4-((4-fluorobenzyl)amino)-7-methoxyquinazolin-6-yl)azetidin-1-yl)prop-2-en-1-one] | > 1000 nM | > 1000 nM | > 1000 nM | 200 to 1000 nM | ≤ 200 nM | 200 to 1000 nM
6 | C=CC(=O)N1CC(c2cc3c(NCc4cccc(Cl)c4)ncnc3cc2OC)C1 [Compound 15, 1-(3-(4-((3-chlorobenzyl)amino)-7-methoxyquinazolin-6-yl)azetidin-1-yl)prop-2-en-1-one] | 200 to 1000 nM | 200 to 1000 nM | > 1000 nM | ≤ 200 nM | ≤ 200 nM | 200 to 1000 nM
7 | C=CC(=O)N1CC(c2cc3c(Nc4ccc(Cl)c(Cl)c4F)ncnc3cc2O[C@H]2CCOC2)C1 [Compound 22, (S)-1-(3-(4-((3,4-dichloro-2-fluorophenyl)amino)-7-((tetrahydrofuran-3-yl)oxy)quinazolin-6-yl)azetidin-1-yl)prop-2-en-1-one] | > 1000 nM | > 1000 nM | > 1000 nM | > 1000 nM | 200 to 1000 nM | > 1000 nM
8 | C=CC(=O)N1CC(c2cc3c(Nc4ccc(Cl)c(Cl)c4F)ncnc3cc2OC2COC2)C1 [Compound 25, 1-(3-(4-((3,4-dichloro-2-fluorophenyl)amino)-7-(oxetan-3-yloxy)quinazolin-6-yl)azetidin-1-yl)prop-2-en-1-one] | ≤ 200 nM | ≤ 200 nM | ≤ 200 nM | ≤ 200 nM | ≤ 200 nM | ≤ 200 nM
9 | C=CC(=O)N1CC(c2cc3c(Nc4ccc(Cl)c(Cl)c4F)ncnc3cc2OCCN(C)C)C1 [Compound 26, 1-(3-(4-((3,4-dichloro-2-fluorophenyl)amino)-7-(2-(dimethylamino)ethoxy)quinazolin-6-yl)azetidin-1-yl)prop-2-en-1-one] | 200 to 1000 nM | 200 to 1000 nM | 200 to 1000 nM | ≤ 200 nM | ≤ 200 nM | 200 to 1000 nM
10 | C=CC(=O)N1CC(c2cc3c(Nc4ccc(Cl)c(Cl)c4F)ncnc3cc2OC2CCOCC2)C1 [Compound 27, 1-(3-(4-((3,4-dichloro-2-fluorophenyl)amino)-7-((tetrahydro-2H-pyran-4-yl)oxy)quinazolin-6-yl)azetidin-1-yl)prop-2-en-1-one] | 200 to 1000 nM | 200 to 1000 nM | > 1000 nM | ≤ 200 nM | ≤ 200 nM | ≤ 200 nM
11 | C=CC(=O)N1CC(c2cc3c(Nc4ccc(Cl)c(Cl)c4F)ncnc3cc2OCCN2CCOCC2)C1 [Compound 28, 1-(3-(4-((3,4-dichloro-2-fluorophenyl)amino)-7-(2-morpholinoethoxy)quinazolin-6-yl)azetidin-1-yl)prop-2-en-1-one] | 200 to 1000 nM | 200 to 1000 nM | 200 to 1000 nM | ≤ 200 nM | ≤ 200 nM | ≤ 200 nM
12 | C=CC(=O)N1CC(c2cc3c(Nc4ccc(Cl)c(Cl)c4F)ncnc3cc2O[C@@H]2CCOC2)C1 [Compound 29, (R)-1-(3-(4-((3,4-dichloro-2-fluorophenyl)amino)-7-((tetrahydrofuran-3-yl)oxy)quinazolin-6-yl)azetidin-1-yl)prop-2-en-1-one] | ≤ 200 nM | 200 to 1000 nM | 200 to 1000 nM | ≤ 200 nM | ≤ 200 nM | ≤ 200 nM

Second part, the molecule after the results:

Row | EC50 (Ba/F3 stable cells [1]) | EC50 (Ba/F3 stable cells [2]) | EC50 (Ba/F3 stable cells [3]) | EC50 (Ba/F3 stable cells [4]) | EC50 (Ba/F3 stable cells [5]) | EC50 (Ba/F3 stable cells [6]) | Structure (SMILES)
13 | ≤ 200 nM | > 1000 nM | > 1000 nM | ≤ 200 nM | ≤ 200 nM | ≤ 200 nM | C=CC(=O)N1CC(c2cc3c(Nc4ccc(F)c5ccccc45)ncnc3cc2OC)C1 [Compound 14, 1-(3-(4-((4-fluoronaphthalen-1-yl)amino)-7-methoxyquinazolin-6-yl)azetidin-1-yl)prop-2-en-1-one]
14 | ≤ 200 nM | ≤ 200 nM | ≤ 200 nM | ≤ 200 nM | ≤ 200 nM | ≤ 200 nM | C=CC(=O)N1CC(c2cc3c(Nc4ccc(F)c(Cl)c4F)ncnc3cc2OC)C1 [Compound 16, 1-(3-(4-((3-chloro-2,4-difluorophenyl)amino)-7-methoxyquinazolin-6-yl)azetidin-1-yl)prop-2-en-1-one]
15 | ≤ 200 nM | ≤ 200 nM | ≤ 200 nM | ≤ 200 nM | ≤ 200 nM | ≤ 200 nM | C=CC(=O)N1CC(c2cc3c(Nc4ccc(Cl)c(Cl)c4F)ncnc3cc2OCCOC)C1 [Compound 17, 1-(3-(4-((3,4-dichloro-2-fluorophenyl)amino)-7-(2-methoxyethoxy)quinazolin-6-yl)azetidin-1-yl)prop-2-en-1-one]
16 | ≤ 200 nM | ≤ 200 nM | ≤ 200 nM | ≤ 200 nM | ≤ 200 nM | ≤ 200 nM | C=CC(=O)N1CC(c2cc3c(Nc4ccc(Cl)c(Cl)c4F)ncnc3cc2OCC)C1 [Compound 18, 1-(3-(4-((3,4-dichloro-2-fluorophenyl)amino)-7-ethoxyquinazolin-6-yl)azetidin-1-yl)prop-2-en-1-one]
17 | ≤ 200 nM | ≤ 200 nM | ≤ 200 nM | ≤ 200 nM | ≤ 200 nM | ≤ 200 nM | C=CC(=O)N1CC(c2cc3c(Nc4ccc(Cl)c(Cl)c4F)ncnc3cc2OCCO)C1 [Compound 19, 1-(3-(4-((3,4-dichloro-2-fluorophenyl)amino)-7-(2-hydroxyethoxy)quinazolin-6-yl)azetidin-1-yl)prop-2-en-1-one]
18 | ≤ 200 nM | ≤ 200 nM | ≤ 200 nM | ≤ 200 nM | ≤ 200 nM | ≤ 200 nM | C=CC(=O)N1CC(c2cc3c(Nc4ccc(Cl)c(Cl)c4F)ncnc3cc2OCCN2CCN(C)CC2)C1 [Compound 21, 1-(3-(4-((3,4-dichloro-2-fluorophenyl)amino)-7-(2-(4-methylpiperazin-1-yl)ethoxy)quinazolin-6-yl)azetidin-1-yl)prop-2-en-1-one]
19 | ≤ 200 nM | ≤ 200 nM | 200 to 1000 nM | ≤ 200 nM | ≤ 200 nM | ≤ 200 nM | C=CC(=O)N1CC(c2cc3c(Nc4ccc(Cl)c(Cl)c4F)ncnc3cc2OC(F)F)C1 [Compound 23, 1-(3-(4-((3,4-dichloro-2-fluorophenyl)amino)-7-(difluoromethoxy)quinazolin-6-yl)azetidin-1-yl)prop-2-en-1-one]
